Assays:
Assay type in all cases: cell-based
[1] = system: HCT116; assay: in vitro antiproliferation assay, HCT116 (colon); settings: HCT116 (colon); read-out: HCT116
Experimental: The IC50 values of various compounds against a various different tumor cell lines were determined using standard in vitro antiproliferation assays. The tumor cell lines tested were as follows: A549 (lung); H1299 (lung), ACHN (kidney/p53 wt), CAKI (renal cell carcinoma), NCI-H460 (lung); HCT116 (colon/p53w0; HELA (cervix/p53 wt), HUH7 (liver/p53 wt), HUVEC (primary endothelial), LNCAP (prostate), HT-29 (colon); MCF-7 (breast); MCF-7 (breast/ER positive), MDA MB435S (breast); MDA MB231 (breast/ER negative), DU145 (prostate); BxPC-3 (pancreatic); SKOV-3 (ovarian); HepG2 (hepatic), NDHF primary normal human dermal fibroblast), SKMEL28 (breast/p53mut), SKMEL5 (breast/p53 wt), U20S (bone) and PC3 (prostate). […] A blank indicates the specified compound was not tested against the specified cell line.
Many of the compounds were tested against other cell lines. Their activity is reported in TABLE 15, below, where +”, “−”, “−/+” or “+/−” values are as described for TABLES 1-14. Where the cell line includes a value in a parenthetical, the value indicates the seeding density at which the assay was performed

[2] = system: A549 cells; assay: in vitro antiproliferation assay, A549 (lung); settings: A549 (lung) cells
Method in brief: (§1)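 Standard in vitro antiproliferation assays on tumour cell lines, including A549 and H1299 (both lung); IC50 values determined.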

[3] = system: H1299 cells; assay: in vitro antiproliferation assay, H1299 (lung); settings: H1299 (lung) cells
Method in brief: as §1

[4] = in vitro antiproliferation, Table 4, compounds with no designated stereochemistry tested as racemate
[5] = Table 5, in vitro antiproliferation

SMILES | IC50 [1] [µM] | IC50 [2] [µM] | IC50 [3] [µM] | other results
CNC(=O)COc1cccc(Nc2ncc(F)c(Nc3ccc4c(c3)NC(=O)[C@H](C)O4)n2)c1 [compound 300] | ≤ 20 |  |  | IC50 [2, 4]: ≤ 20 µM
COc1cc(Nc2ncc(F)c(Nc3ccc4c(c3)NC(=O)C(C)(C)O4)n2)cc(OC)c1 [compound 305] | ≤ 20 |  |  | IC50 [2, 4]: ≤ 20 µM
COc1c(Cl)cc(Nc2ncc(F)c(Nc3ccc4c(c3)NC(=O)C(C)(C)O4)n2)cc1Cl [compound 307] | ≤ 20 |  |  | IC50 [2, 4]: ≤ 20 µM
COc1cc(Nc2ncc(F)c(Nc3ccc4c(c3)NC(=O)C(C)(C)O4)n2)cc(C(F)(F)F)c1 [compound 309] | ≤ 20 |  |  | IC50 [2, 4]: ≤ 20 µM
Cc1cc(C)cc(Nc2ncc(F)c(Nc3ccc4c(c3)NC(=O)C(C)(C)O4)n2)c1 [compound 310] | ≤ 20 |  |  | IC50 [2, 4]: ≤ 20 µM
CC1(C)Oc2ccc(Nc3nc(Nc4cccc(O)c4)ncc3F)cc2NC1=O [compound 356] | > 20 |  |  | 
Cc1cc(Nc2ncc(F)c(Nc3ccc4c(c3)NC(=O)C(C)(C)O4)n2)cc(Cl)c1O [compound 358] | < 20 |  |  | 
CC(=O)N1CCN(c2ccc(Nc3ncc(F)c(Nc4ccc5c(n4)NC(=O)CO5)n3)cc2)CC1 [compound 419] | ≤ 20 |  |  | 
CC(=O)N1CCN(c2ccc(Nc3ncc(F)c(Nc4ccc5c(n4)NC(=O)C(C)(C)O5)n3)cc2)CC1 [compound 432] | ≤ 20 |  |  | 
CN1CCN(c2ccc(Nc3ncc(F)c(Nc4ccc5c(n4)NC(=O)CO5)n3)cc2)CC1 [compound 435] | ≤ 20 |  |  | 
CN1CCN(c2ccc(Nc3ncc(F)c(Nc4ccc5c(n4)NC(=O)C(C)(C)O5)n3)cc2)CC1 [compound 436] | ≤ 20 |  |  | 
O=C(COc1cccc(Nc2ncc(F)c(Nc3ccc4c(c3)OCCO4)n2)c1)N1CCNCC1 [compound 497] | > 20 |  |  | IC50 [2, 5]: ≤ 20 µM
NC(=O)COc1cccc(Nc2ncc(F)c(Nc3ccc4c(c3)OCCO4)n2)c1 [compound 504] | ≤ 20 |  |  | IC50 [2, 5]: ≤ 20 µM
COc1cc(Nc2ncc(F)c(Nc3ccc4c(c3)OCCO4)n2)cc(OC)c1OC [compound 506] | > 20 |  |  | IC50 [2, 5]: ≤ 20 µM
Oc1c(Cl)cc(Nc2ncc(F)c(Nc3ccc4c(c3)OCCO4)n2)cc1Cl [compound 507] | > 20 |  |  | IC50 [2, 5]: ≤ 20 µM
Cc1cc(C)cc(Nc2ncc(F)c(Nc3ccc4c(c3)OCCO4)n2)c1 [compound 527] | ≤ 20 |  |  | IC50 [2, 5]: ≤ 20 µM
Cc1cc(Nc2ncc(F)c(Nc3ccc4c(c3)OCCO4)n2)cc(C)c1Cl [compound 528] | ≤ 20 |  |  | IC50 [2, 5]: ≤ 20 µM
OCCOc1cccc(Nc2ncc(F)c(Nc3ccc4c(c3)OCCCO4)n2)c1 [compound 581] | ≤ 20 |  |  | IC50 [2, 5]: ≤ 20 µM
CCCCn1ncc2cc(Nc3ncc(F)c(Nc4ccc(F)c(OC)c4)n3)ccc21 [compound 1085] |  | ≤ 20 | ≤ 20 | 
CCCCn1ncc2ccc(Nc3ncc(F)c(Nc4ccc(OC)c(Cl)c4)n3)cc21 [compound 1086] |  | ≤ 20 | ≤ 20 | 

SMILES | IC50 [1] [µM] | IC50 [2] [µM] | IC50 [3] [µM] | other results
CCCCn1ncc2ccc(Nc3ncc(F)c(Nc4ccc(Cl)c(Cl)c4)n3)cc21 [compound 1087] |  | ≤ 20 | ≤ 20 | 
CCCCn1ncc2ccc(Nc3ncc(F)c(Nc4ccc5c(c4)NC(=O)C(C)(C)O5)n3)cc21 [compound 1088] |  | ≤ 20 | ≤ 20 | 
CCCCn1ncc2ccc(Nc3ncc(F)c(Nc4ccc(F)c(OC)c4)n3)cc21 [compound 1089] |  | ≤ 20 | ≤ 20 | 
COc1ccc(Nc2nc(Nc3ccc4c(cnn4CC4CCCCC4)c3)ncc2F)cc1Cl [compound 1090] |  | ≤ 20 | ≤ 20 | 
Fc1cnc(Nc2ccc3c(cnn3CC3CCCCC3)c2)nc1Nc1ccc(Cl)c(Cl)c1 [compound 1091] |  | > 20 | > 20 | 
CC1(C)Oc2ccc(Nc3nc(Nc4ccc5c(cnn5C(C)(C)CC5CCCCC5)c4)ncc3F)cc2NC1=O [compound 1092] |  | ≤ 20 | ≤ 20 | 
COc1cc(Nc2nc(Nc3ccc4c(cnn4C(C)(C)CC4CCCCC4)c3)ncc2F)ccc1F [compound 1093] |  | ≤ 20 | ≤ 20 | 
COc1ccc(Nc2nc(Nc3ccc4cnn(C(C)(C)CC5CCCCC5)c4c3)ncc2F)cc1Cl [compound 1094] |  | ≤ 20 | ≤ 20 | 
CC(C)(CC1CCCCC1)n1ncc2ccc(Nc3ncc(F)c(Nc4ccc(Cl)c(Cl)c4)n3)cc21 [compound 1095] |  | ≤ 20 | ≤ 20 | 
CC1(C)Oc2ccc(Nc3nc(Nc4ccc5cnn(C(C)(C)CC6CCCCC6)c5c4)ncc3F)cc2NC1=O [compound 1096] |  | ≤ 20 | ≤ 20 | 
COc1cc(Nc2nc(Nc3ccc4cnn(C(C)(C)CC5CCCCC5)c4c3)ncc2F)ccc1F [compound 1097] |  | > 20 | ≤ 20 | 
COc1ccc(Nc2nc(Nc3ccc4c(cnn4C(C)(C)CC4CCC4)c3)ncc2F)cc1Cl [compound 1098] |  | > 20 | ≤ 20 | 
CC(C)(CC1CCC1)n1ncc2cc(Nc3ncc(F)c(Nc4ccc(Cl)c(Cl)c4)n3)ccc21 [compound 1099] |  | ≤ 20 | ≤ 20 | 
CC1(C)Oc2ccc(Nc3nc(Nc4ccc5c(cnn5C(C)(C)CC5CCC5)c4)ncc3F)cc2NC1=O [compound 1100] |  | ≤ 20 | ≤ 20 | 
COc1cc(Nc2nc(Nc3ccc4c(cnn4C(C)(C)CC4CCC4)c3)ncc2F)ccc1F [compound 1101] |  | ≤ 20 | ≤ 20 | 
COc1ccc(Nc2nc(Nc3ccc4cnn(C(C)(C)CC5CCC5)c4c3)ncc2F)cc1Cl [compound 1102] |  | ≤ 20 | ≤ 20 | 
CC1(C)Oc2ccc(Nc3nc(Nc4ccc5cnn(C(C)(C)CC6CCC6)c5c4)ncc3F)cc2NC1=O [compound 1104] |  | ≤ 20 | ≤ 20 | 
COc1cc(Nc2nc(Nc3ccc4cnn(C(C)(C)CC5CCC5)c4c3)ncc2F)ccc1F [compound 1105] |  | ≤ 20 | ≤ 20 | 
COc1ccc(Nc2nc(Nc3ccc4c(cnn4C(C)(C)CC4CC4)c3)ncc2F)cc1Cl [compound 1106] |  | ≤ 20 | ≤ 20 | 
CC(C)(CC1CC1)n1ncc2cc(Nc3ncc(F)c(Nc4ccc(Cl)c(Cl)c4)n3)ccc21 [compound 1107] |  | > 20 | > 20 | 

SMILES | IC50 [1] [µM] | IC50 [2] [µM] | IC50 [3] [µM] | other results
COc1cc(Nc2nc(Nc3ccc4c(cnn4C(C)(C)CC4CC4)c3)ncc2F)ccc1F [compound 1109] |  | ≤ 20 | ≤ 20 | 
COc1ccc(Nc2nc(Nc3ccc4cnn(C(C)(C)CC5CC5)c4c3)ncc2F)cc1Cl [compound 1110] |  | ≤ 20 | ≤ 20 | 
CC(C)(CC1CC1)n1ncc2ccc(Nc3ncc(F)c(Nc4ccc(Cl)c(Cl)c4)n3)cc21 [compound 1111] |  | ≤ 20 | ≤ 20 | 
CC1(C)Oc2ccc(Nc3nc(Nc4ccc5cnn(C(C)(C)CC6CC6)c5c4)ncc3F)cc2NC1=O [compound 1112] |  | ≤ 20 | ≤ 20 | 
COc1cc(Nc2nc(Nc3ccc4cnn(C(C)(C)CC5CC5)c4c3)ncc2F)ccc1F [compound 1113] |  | ≤ 20 | ≤ 20 | 
COc1cc(C)c(Nc2ncc(F)c(Nc3ccc4c(c3)NC(=O)[C@@H](C)O4)n2)cc1Cl [compound 1139] |  |  |  | IC50 ([2]; Homo sapiens): ≤ 20 µM; IC50 ([3]; Homo sapiens, NCI-H1299): > 20 µM
COc1cc(C)c(Nc2ncc(F)c(Nc3ccc4c(c3)NC(=O)[C@H](C)O4)n2)cc1Cl [compound 1140] |  |  |  | IC50 ([2]; Homo sapiens): > 20 µM; IC50 ([3]; Homo sapiens, NCI-H1299): > 20 µM
COc1cc(OC)c(Nc2ncc(F)c(Nc3ccc4c(c3)NC(=O)[C@H](C)O4)n2)cc1Cl [compound 1141] |  |  |  | IC50 ([2]; Homo sapiens): > 20 µM; IC50 ([3]; Homo sapiens, NCI-H1299): > 20 µM
COc1cc(C)c(Nc2ncc(F)c(Nc3ccc4c(c3)NC(C)(C)CO4)n2)cc1Cl [compound 1142] |  |  |  | IC50 ([2]; Homo sapiens): ≤ 20 µM; IC50 ([3]; Homo sapiens, NCI-H1299): > 20 µM
O=C1Nc2ccc(Nc3nc(Nc4cccc(-c5ncco5)c4)ncc3F)cc2OC1CCO (centres unmarked) [compound 1145] |  |  |  | IC50 ([2]; Homo sapiens): ≤ 20 µM; IC50 ([3]; Homo sapiens, NCI-H1299): ≤ 20 µM
Cc1ccc(CNc2ncc(F)c(Nc3ccc4c(c3)OCCO4)n2)cc1Cl [compound 1146] |  |  |  | IC50 ([2]; Homo sapiens): ≤ 20 µM; IC50 ([3]; Homo sapiens, NCI-H1299): > 20 µM
CC(Nc1ncc(F)c(Nc2ccc3c(c2)OCCO3)n1)c1ccccc1 (centres unmarked) [compound 1147] |  |  |  | IC50 ([2]; Homo sapiens): ≤ 20 µM; IC50 ([3]; Homo sapiens, NCI-H1299): ≤ 20 µM
COc1ccc(Nc2nc(Nc3cc(OC)c(Cl)cc3OC)ncc2F)cc1Cl [compound 1158] |  |  |  | IC50 ([2]; Homo sapiens): ≤ 20 µM; IC50 ([3]; Homo sapiens, NCI-H1299): ≤ 20 µM
COc1cc(Nc2nc(Nc3cc(OC)c(Cl)cc3OC)ncc2F)cc(OC)c1 [compound 1159] |  |  |  | IC50 ([2]; Homo sapiens): ≤ 20 µM; IC50 ([3]; Homo sapiens, NCI-H1299): ≤ 20 µM
CNc1ncc(F)c(Nc2cc(Cl)c(OC)c(Cl)c2)n1 [compound 1160] |  |  |  | IC50 ([2]; Homo sapiens): ≤ 20 µM; IC50 ([3]; Homo sapiens, NCI-H1299): ≤ 20 µM
COc1cc(C(N)=O)c(Nc2ncc(F)c(N(C)C3CCC3)n2)cc1OC(=O)c1ccccc1 [compound 1162] |  |  |  | IC50 ([2]; Homo sapiens): ≤ 20 µM; IC50 ([3]; Homo sapiens, NCI-H1299): ≤ 20 µM
COc1cc(C(N)=O)c(Nc2ncc(F)c(NC3CCCC3)n2)cc1OC(=O)c1ccccc1 [compound 1163] |  |  |  | IC50 ([2]; Homo sapiens): ≤ 20 µM; IC50 ([3]; Homo sapiens, NCI-H1299): ≤ 20 µM
COc1cc(C(N)=O)c(Nc2ncc(F)c(NC3CCCCC3)n2)cc1OC(=O)c1ccccc1 [compound 1164] |  |  |  | IC50 ([2]; Homo sapiens): ≤ 20 µM; IC50 ([3]; Homo sapiens, NCI-H1299): ≤ 20 µM

— patent US8809341B2, “2,4-pyrimidinediamine compounds and uses as anti-proliferative agents” (Rigel Pharmaceuticals, Inc., priority 2003, dated 2014)
